Results taken from ChEMBL document CHEMBL1833788, “Selective water-soluble gelatinase inhibitor prodrugs” (J Med Chem, 2011).

Experiments:
Mus musculus [1] = experiment: Volume of distribution in C57B1/6 mouse plasma assessed as parent compound level at […], iv administered as single bolus dose; format: ADME, organism-based; settings: in vivo
Mus musculus [2] = experiment: Prodrug conversion in C57B1/6 mouse plasma assessed as parent compound level at […], iv administered as single bolus dose after 7 to 8 mins by reversed-phase LC/MS analysis; format: ADME, organism-based; settings: in vivo
Mus musculus [3] = experiment: Distribution half life in C57B1/6 mouse plasma assessed as 4-[4-((Thiiran-2-yl)methylsulphonyl)phenoxy]benzamine level at […], iv administered as single dose; format: ADME, organism-based; settings: in vivo
Mus musculus [4] = experiment: Distribution half life in C57B1/6 mouse plasma assessed as parent compound level at […], iv administered as single bolus dose; format: ADME, organism-based; settings: in vivo
Mus musculus [5] = experiment: Clearance in C57B1/6 mouse plasma assessed as parent compound level at […], iv administered as single bolus dose; format: ADME, organism-based; settings: in vivo
Mus musculus [6] = experiment: AUC (0 to last) in C57B1/6 mouse plasma assessed as parent compound level at […], iv administered as single bolus dose; format: ADME, organism-based; settings: in vivo
Mus musculus [7] = experiment: Prodrug conversion in C57B1/6 mouse plasma assessed as parent compound level at […], iv administered as single bolus dose after 22 mins by reversed-phase LC/MS analysis; format: ADME, organism-based; settings: in vivo, read-out: Drug metabolism
Mus musculus [8] = experiment: Prodrug conversion in C57B1/6 mouse assessed as 4-[4-((Thiiran-2-yl)methylsulphonyl)phenoxy]benzamine level in plasma at […], iv administered as single bolus dose after 120 to 123 mins by reversed-phase HPLC/UV analysis; format: ADME, organism-based; settings: in vivo
Mus musculus [9] = experiment: Prodrug conversion in C57B1/6 mouse assessed as N-(4-(4-(thiiran-2-ylmethylsulfonyl)phenoxy)phenyl)acetamide level in plasma at […], iv administered as single bolus dose after 62 to 66 mins by reversed-phase LC/MS analysis; settings: in vivo
Mus musculus [10] = experiment: AUC (0 to infinity) in C57B1/6 mouse plasma assessed as 4-[4-((Thiiran-2-yl)methylsulphonyl)phenoxy]benzamine level at […], iv administered as single bolus dose; format: ADME, organism-based; settings: in vivo
Mus musculus [11] = experiment: Prodrug conversion in C57B1/6 mouse assessed as 4-[4-((Thiiran-2-yl)methylsulphonyl)phenoxy]benzamine level in plasma at […], iv administered as single bolus dose after 4 to 5 mins by reversed-phase HPLC/UV analysis; format: ADME, organism-based; settings: in vivo
Mus musculus [12] = experiment: Prodrug conversion in C57B1/6 mouse assessed as 4-[4-((Thiiran-2-yl)methylsulphonyl)phenoxy]benzamine level in plasma at […], iv administered as single bolus dose after 240 mins by reversed-phase HPLC/UV analysis; format: ADME, organism-based; settings: in vivo, 4 h, read-out: Drug metabolism
Mus musculus [13] = experiment: Prodrug conversion in C57B1/6 mouse assessed as N-(4-(4-((Thiiran-2-ylmethyl)sulfonyl)phenoxy)phenyl) hydroxylamine level in urine at […], iv administered as single dose by reversed-phase LC/MS analysis; format: ADME, organism-based; settings: in vivo
Mus musculus [14] = experiment: Prodrug conversion in C57B1/6 mouse plasma assessed as parent compound level at […], iv administered as single bolus dose after 11 to 12 mins by reversed-phase LC/MS analysis; format: ADME, organism-based; settings: in vivo, read-out: Drug metabolism
Mus musculus [15] = experiment: Prodrug conversion in C57B1/6 mouse plasma assessed as parent compound level at […], iv administered as single bolus dose after 62 to 66 mins by reversed-phase LC/MS analysis; format: ADME, organism-based; settings: in vivo, read-out: Drug metabolism
Mus musculus [16] = experiment: Prodrug conversion in C57B1/6 mouse plasma assessed as parent compound level at […], iv administered as single bolus dose after 240 mins by reversed-phase LC/MS analysis; format: ADME, organism-based; settings: in vivo, 4 h, read-out: Drug metabolism
Mus musculus [17] = experiment: Prodrug conversion in C57B1/6 mouse assessed as 4-[4-((Thiiran-2-yl)methylsulphonyl)phenoxy]benzamine level in plasma at […], iv administered as single bolus dose after 2 to 3 mins by reversed-phase HPLC/UV analysis; format: ADME, organism-based; settings: in vivo
Mus musculus [18] = experiment: Prodrug conversion in C57B1/6 mouse assessed as N-(4-(4-(thiiran-2-ylmethylsulfonyl)phenoxy)phenyl)acetamide level in plasma at […], iv administered as single bolus dose after 4 to 5 mins by reversed-phase HPLC/UV analysis; format: ADME, organism-based; settings: in vivo, read-out: Drug metabolism
Mus musculus [19] = experiment: Prodrug conversion in C57B1/6 mouse assessed as 4-[4-((Thiiran-2-yl)methylsulphonyl)phenoxy]benzamine level in plasma at […], iv administered as single bolus dose after 11 to 12 mins by reversed-phase HPLC/UV analysis; format: ADME, organism-based; settings: in vivo, read-out: Drug metabolism
Mus musculus [20] = experiment: Prodrug conversion in C57B1/6 mouse assessed as N-(4-(4-(thiiran-2-ylmethylsulfonyl)phenoxy)phenyl)acetamide level in plasma at […], iv administered as single bolus dose after 22 mins by reversed-phase HPLC/UV analysis; format: ADME, organism-based; settings: in vivo
Mus musculus [21] = experiment: AUC (0 to last) in C57B1/6 mouse plasma assessed as N-(4-(4-(thiiran-2-ylmethylsulfonyl)phenoxy)phenyl)acetamide level at […], iv administered as single bolus dose; format: ADME, organism-based; settings: in vivo
Mus musculus [22] = experiment: Prodrug conversion in C57B1/6 mouse plasma assessed as parent compound level at […], iv administered as single bolus dose after 120 to 123 mins by reversed-phase LC/MS analysis; format: ADME, organism-based; settings: in vivo, read-out: Drug metabolism
Mus musculus [23] = experiment: Prodrug conversion in C57B1/6 mouse assessed as N-(4-(4-(thiiran-2-ylmethylsulfonyl)phenoxy)phenyl)acetamide level in plasma at […], iv administered as single bolus dose after 7 to 8 mins by reversed-phase LC/MS analysis; settings: in vivo
Mus musculus [24] = experiment: Terminal half life in C57B1/6 mouse plasma assessed as N-(4-(4-(thiiran-2-ylmethylsulfonyl)phenoxy)phenyl)acetamide level at […], iv administered as single bolus dose; format: ADME, organism-based; settings: in vivo, BLD = below limit of detection
Mus musculus [25] = experiment: Prodrug conversion in C57B1/6 mouse assessed as N-(4-(4-(thiiran-2-ylmethylsulfonyl)phenoxy)phenyl)acetamide level in plasma at […], iv administered as single bolus dose after 42 mins by reversed-phase HPLC/UV analysis; format: ADME, organism-based; settings: in vivo, 0.7 h
Mus musculus [26] = experiment: Prodrug conversion in C57B1/6 mouse assessed as 4-[4-((Thiiran-2-yl)methylsulphonyl)phenoxy]benzamine level in plasma at […], iv administered as single bolus dose after 7 to 8 mins by reversed-phase HPLC/UV analysis; format: ADME, organism-based; settings: in vivo
Mus musculus [27] = experiment: Terminal half life in C57B1/6 mouse plasma assessed as 4-[4-((Thiiran-2-yl)methylsulphonyl)phenoxy]benzamine level at […], iv administered as single dose; format: ADME, organism-based; settings: in vivo
Mus musculus [28] = experiment: Distribution half life in C57B1/6 mouse plasma assessed as N-(4-(4-(thiiran-2-ylmethylsulfonyl)phenoxy)phenyl)acetamide level at […], iv administered as single bolus dose; format: ADME, organism-based; settings: in vivo
Mus musculus [29] = experiment: Prodrug conversion in C57B1/6 mouse assessed as N-(4-(4-(thiiran-2-ylmethylsulfonyl)phenoxy)phenyl)acetamide level in plasma at […], iv administered as single bolus dose after 2 to 3 mins by reversed-phase LC/MS analysis; settings: in vivo
Mus musculus [30] = experiment: Prodrug conversion in C57B1/6 mouse assessed as N-(4-(4-(thiiran-2-ylmethylsulfonyl)phenoxy)phenyl)acetamide level in plasma at […], iv administered as single bolus dose after 11 to 12 mins by reversed-phase LC/MS analysis; settings: in vivo
Mus musculus [31] = experiment: AUC (0 to infinity) in C57B1/6 mouse plasma assessed as parent compound level at […], iv administered as single bolus dose; format: ADME, organism-based; settings: in vivo

Compound: Cl.N=C(N)NCCC[C@H](N)C(=O)Nc1ccc(Oc2ccc(S(=O)(=O)CC3CS3)cc2)cc1 (stereo partly specified)
- Vd (Mus musculus [1]): 0.0978 L/kg
- Drug metabolism (Mus musculus [2]): 1.28 µM
- alphat1/2 (Mus musculus [3]): 2.9 min
- alphat1/2 (Mus musculus [4]): 0.88 min
- CL (Mus musculus [5]): 58.2 mL/min/kg
- AUClast (Mus musculus [6]): 360 µM·min
- concentration (Mus musculus [7]): 138 nM
- Drug metabolism (Mus musculus [8]): 0.0248 µM
- Drug metabolism (Mus musculus [9]): 0.0121 µM
- AUC (Mus musculus [10]): 138 µM·min
- Drug metabolism (Mus musculus [11]): 10.4 µM
- concentration (Mus musculus [12]): 14.5 nM
- Drug metabolism (Mus musculus [13]): Not Active
- concentration (Mus musculus [14]): 1580 nM
- concentration (Mus musculus [15]): 38.5 nM
- concentration (Mus musculus [16]): 8.3 nM
- Drug metabolism (Mus musculus [17]): 12.3 µM
- concentration (Mus musculus [18]): 231 nM
- concentration (Mus musculus [19]): 2450 nM
- Drug metabolism (Mus musculus [20]): 0.0627 µM
- AUClast (Mus musculus [21]): 4.22 µM·min
- concentration (Mus musculus [22]): 17.1 nM
- Drug metabolism (Mus musculus [23]): 0.176 µM
- beta t1/2 (Mus musculus [24]): BLD
- Drug metabolism (Mus musculus [25]): 0.0358 µM
- Drug metabolism (Mus musculus [26]): 4.5 µM
- beta t1/2 (Mus musculus [27]): 1.15 h
- alphat1/2 (Mus musculus [28]): 12 min
- Drug metabolism (Mus musculus [29]): 0.0354 µM
- Drug metabolism (Mus musculus [30]): 0.149 µM
- AUC (Mus musculus [31]): 363 µM·min
